According to patent publication US4603123A, “Compounds having antiinflammatory activity, obtained by complexation of piroxican with β-cyclodextrin, and pharmaceutical compositions containing them” (priority 1984, dated 1986):
Converted amounts (≈) assume the structure as drawn. Where two headings read alike, the source gives them in different places.

Key:
[1] = Plasma kinetics of piroxicam in the rabbit after oral administration; assay type: in vivo, male New Zealand White rabbits
Procedure: For these investigations, male New Zealand White rabbits, weighing 2.5-3.0 kg were employed. The animals were kept at constant temperature and fastened for the 17 hours preceeding the experiments. Water was given ad libitum. […] The determination of the plasma levels of the active principle, at the different times since the administration, was carried out by High Pressure Liquid Chromatography (HPLC).

gastrointestinal mucosa = settings: background; cited from earlier work
[2] = background; cited from earlier work
[3] = Plasma kinetics of piroxicam in the dog after oral administration; design: species or system Beagle dogs; settings: in vivo, 10 mg/kg of active ingredient
Procedure: The dogs were kept at constant temperature and fastened at least for 17 hours before the beginning of the experiment. Water was available ad libitum.
The two substances to be investigated were orally administered at a dosage corresponding to 10 mg/kg of active ingredient, according to a crossover scheme. The determination of the plasma concentrations of the active ingredient, at a different time intervals since the administration, was carried out by High Pressure Liquid Chromatography (HPLC).

[4] = Gastrolesive action in rats and therapeutic index UD0/ED30; settings: in vivo, rat
Procedure: The gastrolesive action was tested on rats fastened for 18 hours, through macroscopical examination of the gastric mucosa, 5 hours after the administration of the substances under investigation. For each treatment, the regression lines log. of the dosage-mm of ulceration (single values for each animal) were determined. These lines allowed to calculate, for each compound, the UD0 values i.e., the maximum dosages at which no lesions are observed.
Finally, it was also determined the therapeutic index of the new compound piroxicam/β-cyclodextrin, in comparison with piroxicam. Said index was expressed as the ratio UD0 /ED30 wherein UD0 and ED30 are as above defined.

[5] = tested on: phenylquinone induced writhing; test: Phenylquinone induced writhing test (kinetic of the analgesic activity); assay type: in vivo, female NMRI mice; settings: mouse, oral, 0.5 mg/kg of active substance
Procedure: The employed experimental model is a slight modification of that described by Siegmund, J. Pharm. Exptl. Ther., 119, 184, 1957.
Female NMRI mice, housed under standard conditions, fastened for 18 hours, were employed as the test animals. Water was available ad libitum.
The compounds under study were orally administered by oesophageal gavage, suspended in an aqueous solution containing 0.5% of carboxymethylcellulose, at a concentration corresponding to 0.5 mg/kg of active substance (piroxicam).

[6] = tested on: carrageenin induced oedema; test: Carrageenin induced oedema test in rats (antiinflammatory activity); assay type: in vivo, male Crl:CD(SD) rats; settings: oral, rat
Procedure: The antiinflammatory activity was determined by means of the carrageenin induced oedema test, according to the methodology reported by C. A. Winter et al in Proc. Soc. Exptl. […] As the test animals, male Crl:CD(SD) rats, weighing 150-170 g, were employed. The animals were housed under standard conditions and fastened for 18 hours before the beginning of the experiment. Water was available ad libitum.
The obtained results were expressed both as ED50 values, determined in correspondence of the activity peak on the regression line log. of the dosage-% inhibition of the oedema, and as ED30 values, calculated on the regression lines log. of the dosage-% inhibition of the oedema over the controls, determined as the mean value of AUC (area under Curve representing the development of the paw volume in the time).
In addition, it was determined the kinetic of the activity of the two formulations under investigation, by calculating the ED30 values at 2, 3, 4 and 6 hours since the carrageenin injection.

[7] = Dissolution test in water, Dissolution Tester, 25° C.
Procedure: 7.5 Grams of piroxicam/β-cyclodextrin were poured into 150 ml of water at 25° C. under stirring. At predetermined time intervals, samples of 5 ml of suspension were collected and filtered through 0.2μ. […] were diluted 1 to 500 with 0.1 N NaOH in methanol immediately after the filtration. The whole was again filtered through paper.
The amount of piroxicam in the solution was spectrophotometrically determined at 358 nm against a solution of 0.1 N NaOH in methanol.

[8] = plasma, 10 mg/kg of active ingredient, mean

In the case of `CN1C(C(=O)Nc2ccccn2)=C(O)c2ccccc2S1(=O)=O` [Piroxicam, 4-hydroxy-2-methyl-N-2-pyridyl-2H-1,2-benzothiazine-3-carboxamide-1,1-dioxide], the bioavailability [1] was “almost complete bioavailability”, the Tmax ([1]; plasma, 10 mg/kg of active ingredient) was 2.3 h and the concentration at 0.5 h ([1]; plasma, 10 mg/kg of active ingredient, 0.50 h, mean) was 4300 ng/mL. It also gave a concentration at 1 h ([1]; plasma, 10 mg/kg of active ingredient, 1 h, mean) of 7400 ng/mL, a concentration at 2 h ([1]; plasma, 10 mg/kg of active ingredient, 2 h, mean) of 10900 ng/mL and a concentration at 4 h ([1]; plasma, 10 mg/kg of active ingredient, 4 h, mean) of 10100 ng/mL. It also gave a concentration at 8 h ([1]; plasma, 10 mg/kg of active ingredient, 8 h, mean) of 6500 ng/mL, a concentration at 24 h ([1]; plasma, 10 mg/kg of active ingredient, 24 h, mean) of 300 ng/mL and an AUC(0-t) at 2 h [1, 8] of 13200 ng·h/mL. For the same molecule, the AUC(0-t) at 24 h [1, 8] was 121000 ng·h/mL, the Cmax [1, 8] was 11700 ng/mL and the “effects on the gastrointestinal mucosa” value (gastrointestinal mucosa) was “responsible of lesive effects on the gastrointestinal mucosa”. For the same molecule, the solubility in water [2] was “practically insoluble in water”, the Tmax [3] was 1.8 h and the concentration at 0.25 h ([3]; 0.25 h, mean) was 1000 ng/mL. For the same molecule, the concentration at 0.5 h ([3]; 0.50 h, mean) was 2800 ng/mL, the concentration at 1 h ([3]; 1 h, mean) was 12700 ng/mL and the concentration at 2 h ([3]; 2 h, mean) was 19400 ng/mL. The concentration at 4 h ([3]; 4 h, mean) was 18900 ng/mL, the concentration at 8 h ([3]; 8 h, mean) was 14200 ng/mL and the concentration at 24 h ([3]; 24 h, mean) was 11500 ng/mL. For the same molecule, the concentration at 48 h ([3]; 48 h, mean) was 9200 ng/mL, the concentration at 72 h ([3]; 72 h, mean) was 3000 ng/mL and the AUC(0-t) at 2 h ([3]; mean) was 20400 ng·h/mL. For the same molecule, the AUC(0-t) at 72 h ([3]; mean) was 724000 ng·h/mL, the Cmax ([3]; mean) was 20000 ng/mL and the NOAEL at 5 h ([4]; 5 hours after administration, dosage as piroxicam, read-out: Gastrolesive activity UD0 (maximum dosage at which no lesions are observed)) was 1.1 mg/kg. The selectivity ratio ([4]; piroxicam = 1, read-out: Relative therapeutic index) was 1, the selectivity ratio ([4]; read-out: Absolute therapeutic index (UD0/ED30)) was 0.44 and the “time of the activity peak (analgesic)” value [5] was 20 min. The “percentage of the maximum evidenced inhibition (writhing) at 5 minutes” value ([5]; 5 minutes after the administration) was 78%, the ED30 ([6]; Rat2, 2 h since carrageenin injection, read-out: ED30 at 2 h) was 0.6 mg/kg and the ED30 ([6]; 3 h since carrageenin injection, read-out: ED30 at 3 h) was 1.6 mg/kg. The ED30 ([6]; 4 h since carrageenin injection, read-out: ED30 at 4 h) was 3.1 mg/kg, the ED30 ([6]; 6 h since carrageenin injection, read-out: ED30 at 6 h) was 9.7 mg/kg and the ED30 ([6]; AUC of paw volume in time, dosage as piroxicam, read-out: Activity on AUC ED30) was 2.5 mg/kg. It also gave an ED50 ([6]; at the activity peak, dosage as piroxicam) of 2.3 mg/kg and a solubility at 0.5 h [7] of 111 µg/mL (≈ 335 µM).
